US11655239B2 (SHANGHAI INSTITUTE OF MATERIAL MEDICA, CHINESE ACADEMY OF …, priority 2019, dated 2023)

biological target: DDR2 (Homo sapiens (Human), UniProt Q16832); assay: DDR2 enzyme activity test (ELISA); type: biochemical; settings: Table 3, chiral synthesis vs resolution; read-out: Molecular activity comparison (inhibitory activity against DDR2 enzyme)
Description: The optical rotation and the inhibitory activity against DDR2 enzyme of the compounds S11-A and S11-B obtained by the resolution in Example 12, and the chirally synthesized compounds S11-A′ and S11-B′ in Example 13 were tested (referred to the operation in Effect example 1), and the results are shown in Table 3 below:
Detection method: Enzyme-linked immunosorbent assay (ELISA)
Test receptor tyrosine kinase: DDR2
The kinase used in the experiment was obtained by our laboratory using the insect baculovirus expression system to express and purify the recombinant protein containing the protein kinase region; polyglutamic acid-tyrosine peptide segment [Poly(Glu, Tyr) 4:1] and sodium vanadate were purchased from Sigma; the anti-phosphorylated monoclonal antibody PY99 was purchased from Santa Cruz; horseradish peroxidase labeled goat anti-murine secondary antibody was purchased from Calbiochem; ATP and OPD were purchased from Sangon Biotech (Shanghai) Co., Ltd.; the remaining reagents were purchased from Sinopharm Chemical Reagent Co., Ltd. The reaction ELISA plate (#2592) was purchased from Corning. The full-wavelength microplate reader for experiment reading was a product of Molecular Device, model: SpectraMax 190; the experimental water was distilled water produced by Sinopharm Group.
The compound was centrifuged at 12,000 g for 5 min, and DMSO was added to prepare a 10^-2M stock solution, which was vortexed evenly, then sonicated for 10 min and stored at −40° C. for later use. During the test, the compound was diluted with DMSO from the stock solution to 100 times the test concentration (the DMSO concentration in the system was 1%).
1) Enzyme reaction substrate Poly(Glu, Tyr) 4:1 was diluted to 20 μg/mL with potassium-free PBS (10 mM sodium phosphate buffer, 150 mM NaCl, pH 7.2-7.4), and the microtiter plate was coated with 125 μL/well and placed at 37° C. for 12-16 hours of reaction. The liquid in the well was discard. The plate was washed three times with T-PBS (potassium-free PBS containing 0.1% Tween-20, 200 μL/well), 5 minutes each time. The ELISA plate was dried in an oven at 37° C. for 1 to 2 hours.
2) Reaction buffer (50 mM HEPES pH 7.4, 50 mM MgCl2, 0.5 mM MnCl2, 0.2 mM Na3VO4, 1 mM DTT) diluted ATP solution (49 μL) was added to each well, 1 μL of the compound to be tested was added to each well, and then 50 μL of DDR2 kinase domain recombinant protein diluted in the reaction buffer was added to start the reaction. Two control wells without ATP were set in each experiment. The plate placed on a shaker (100 rpm) at 37° C. for 1 hour of reaction. The liquid in the well was discarded and the plate was washed three times with T-PBS.
3) Antibody PY99 dilution solution (the antibody was diluted 1:500 with T-PBS containing BSA 5 mg/mL) was added at 100 μL/well, and shaken on a shaker at 37° C. for 0.5 hour of reaction. The liquid in the well was discarded and the plate was washed three times with T-PBS.
4) Horseradish peroxidase labeled goat anti-murine secondary antibody dilution solution (the antibody is diluted 1:2000 with T-PBS containing BSA 5 mg/ml) was added at 100 μL/well, and shaken on a shaker at 37° C. for 0.5 hour of reaction. The liquid in the well was discarded and the plate was washed three times with T-PBS.
5) 2 mg/ml of OPD color developing solution [diluted with 0.1 M citric acid-sodium citrate buffer (pH=5.4) containing 0.03% H2O2] was added at 100 μL/well and reacted for 1 to 10 minutes at 25° C. in the dark.
6) 2M H2SO4 was added at 50 μL/well to stop the reaction, and a tunable wavelength microplate reader VERSAmax was used for reading at a wavelength of 490 nm.
The IC50 value was obtained by four-parameter regression using the software that came with the microplate reader.

DDR2, sequence (Q16832 563-849): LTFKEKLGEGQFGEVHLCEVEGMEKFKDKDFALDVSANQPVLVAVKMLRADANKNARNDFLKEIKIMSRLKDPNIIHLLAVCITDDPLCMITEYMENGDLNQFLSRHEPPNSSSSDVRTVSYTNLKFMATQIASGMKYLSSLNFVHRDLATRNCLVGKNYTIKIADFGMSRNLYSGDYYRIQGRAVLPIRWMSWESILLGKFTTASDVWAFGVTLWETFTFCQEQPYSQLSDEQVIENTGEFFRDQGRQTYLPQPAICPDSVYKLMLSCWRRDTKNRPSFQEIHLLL

IC50 [nM]	SMILES
5 ± 0.1	Cc1ccc([C@H](C)NC(=O)c2cccc(C(F)(F)F)c2)cc1-c1ccc2nc(Nc3cnn(C4CC4)c3)ncc2c1 [Compound S11-A]
14.4 ± 2.1	Cc1ccc([C@@H](C)NC(=O)c2cccc(C(F)(F)F)c2)cc1-c1ccc2nc(Nc3cnn(C4CC4)c3)ncc2c1 [Compound S11-B]

same assay, conditions: read-out: DDR2 IC50

IC50 [nM]	SMILES
8.7 ± 1.1	Cc1ccc(C(C)NC(=O)Nc2cccc(C(F)(F)F)c2)cc1-c1ccc2nc(Nc3cnn(C)c3)ncc2c1 (centres unmarked) [Compound S27, 1-(1-(4-methyl-3-(2-((1-methyl-1H-pyrazol-4-yl)amino)quinazolin-6-yl)phenyl)ethyl)-3-(3-(trifluoromethyl)phenyl)urea]
9.7 ± 0.6	Cc1ccc(NC(=O)Nc2cc(C(C)(C)C)nn2-c2ccccc2)cc1-c1ccc2nc(Nc3cnn(C)c3)ncc2c1 [Compound S2, 1-(3-(tert-butyl)-1-phenyl-1H-pyrazol-5-yl)-3-(4-methyl-3-(2-((1-methyl-1H-pyrazol-4-yl)amino)quinazolin-6-yl)phenyl)urea]
1.7 ± 0.3	CC(C(=O)Nc1ccc(C2CC2)c(-c2ccc3nc(Nc4cnn(C5CC5)c4)ncc3c2)c1)c1cccc(C(F)(F)F)c1 (centres unmarked) [Compound S17, N-(4-cyclopropyl-3-(2-((1-cyclopropyl-1H-pyrazol-4-yl)amino)quinazolin-6-yl)phenyl)-2-(3-(trifluoromethyl)phenyl)propionamide]
4.1 ± 0.1	Cc1ccc(C(C)NC(=O)c2cccc(C(F)(F)F)c2)cc1-c1ccc2cnc(Nc3cnn(C)c3)nc2c1 (centres unmarked) [Compound S4, N-(1-(4-methyl-3-(2-((1-methyl-1H-pyrazol-4-yl)amino)quinazolin-7-yl)phenyl)ethyl)-3-(Trifluoromethyl)benzamide]
5.6 ± 0.3	Cc1ccc(C(C)NC(=O)c2cccc(C(C)(C)C#N)c2)cc1-c1ccc2nc(Nc3cnn(C4CC4)c3)ncc2c1 (centres unmarked) [Compound S20, 3-(2-cyanopropane-2-yl)-N-(1-(3-(2-((1-cyclopropyl-1H-pyrazol-4-yl)amino)quinazolin-6-yl)-4-methylphenyl)ethyl)benzamide]
2.9 ± 0.8	Cc1ccc(C(=O)NC(C)c2cccc(C(F)(F)F)c2)cc1-c1ccc2nc(Nc3cnn(C)c3)ncc2c1 (centres unmarked) [Compound S5, 4-Methyl-3-(2-((1-methyl-1H-pyrazol-4-yl)amino)quinazolin-6-yl)-N-(1-(3-(trifluoromethyl)phenyl)ethyl)benzamide]
2.7 ± 0.1	Cc1ccc(C(C)C(=O)Nc2cccc(C(F)(F)F)c2)cc1-c1ccc2nc(Nc3cnn(C4CC4)c3)ncc2c1 (centres unmarked) [Compound S9, 2-(3-(2-((1-cyclopropyl-1H-pyrazol-4-yl)amino)quinazolin-6-yl)-4-methylphenyl)-N-(3-(trifluoromethyl)phenyl)propionamide]
13.5 ± 7.2	C[C@@H](NC(=O)c1ccc(C2CC2)c(-c2ccc3cnc(Nc4cnn(C5CC5)c4)nc3c2)c1)c1cccc(C(F)(F)F)c1 [Compound S37]

SMILES	IC50 [nM]
Cc1ccc(NC(=O)Nc2cccc(C(F)(F)F)c2)cc1-c1ccc2nc(Nc3cnn(C)c3)ncc2c1 [Compound S1, 1-(4-methyl-3-(2-((1-methyl-1H-pyrazol-4-yl)amino)quinazolin-6-yl)phenyl)-3-(3-(trifluoromethyl)phenyl)urea]	6.6 ± 0.4
CCC(NC(=O)c1cccc(C(F)(F)F)c1)c1ccc(C)c(-c2ccc3nc(Nc4cnn(C)c4)ncc3c2)c1 (centres unmarked) [Compound S6, N-(1-(4-methyl-3-(2-((1-methyl-1H-pyrazol-4-yl)amino)quinazolin-6-yl)phenyl)propyl)-3-(trifluoromethyl)benzamide]	5 ± 0.5
Cc1ccc(NC(=O)C(C)c2cccc(C(F)(F)F)c2)cc1-c1ccc2nc(Nc3cnn(C)c3)ncc2c1 (centres unmarked) [Compound S8, N-(4-methyl-3-(2-((1-methyl-1H-pyrazol-4-yl)amino)quinazolin-6-yl)phenyl)-2-(3-(trifluoromethyl)phenyl)propionamide]	2.2 ± 0.2
Cn1cc(Nc2ncc3cc(-c4cc(C(=O)Nc5cccc(C(F)(F)F)c5)ccc4C4CC4)ccc3n2)cn1 [Compound S14, 4-cyclopropyl-3-(2-((1-methyl-1H-pyrazol-4-yl)amino)quinazolin-6-yl)-N-(3-(trifluoromethyl)phenyl)benzamide]	4.3 ± 0.7
CC(C)c1ccc(C(=O)Nc2cccc(C(F)(F)F)c2)cc1-c1ccc2nc(Nc3cnn(C)c3)ncc2c1 [Compound S13, 4-isopropyl-3-(2-((1-methyl-1H-pyrazol-4-yl)amino)quinazolin-6-yl)-N-(3-(trifluoromethyl)phenyl)benzamide]	5.4 ± 0.4
Cc1ccc(C(=O)NCc2cccc(C(F)(F)F)c2)cc1-c1ccc2nc(Nc3cnn(C)c3)ncc2c1 [Compound S7, 4-methyl-3-(2-((1-methyl-1H-pyrazol-4-yl)amino)quinazolin-6-yl)-N-(3-(trifluoromethyl)benzyl)benzamide]	1.3 ± 0.2

same assay, conditions: read-out: DDR2 Inhibition rate at 0.1 μM

inhibition at 0.1 µM [%]	SMILES
68.4	CC(NC(=O)c1ccc(C2CC2)c(-c2ccc3nc(Nc4cnn(C5CC5)c4)ncc3c2)c1)c1cc(C(F)(F)F)ccn1 (centres unmarked) [Compound S45]
72.9	Cc1nc(C(C)NC(=O)c2ccc(C3CC3)c(-c3ccc4nc(Nc5cnn(C6CC6)c5)ncc4c3)c2)cs1 (centres unmarked) [Compound S44]
57.6	CCN1CCN(Cc2cc(C(C)NC(=O)c3ccc(C4CC4)c(-c4ccc5nc(Nc6cnn(C7CC7)c6)ncc5c4)c3)cc(C(F)(F)F)c2)CC1 (centres unmarked) [Compound S43]
47.7	O=C(NC1CCc2c1cccc2C(F)(F)F)c1ccc(C2CC2)c(-c2ccc3nc(Nc4cnn(C5CC5)c4)ncc3c2)c1 (centres unmarked) [Compound S46]

tested on: pulmonary fibrosis induced by bleomycin in mice; assay: mRNA levels of fibrosis-related markers in lung tissue (qRT-PCR); type: in vivo, mouse; settings: 30 mg/kg
Description: About 30 mg of cryopreserved lung tissue was weighed and homogenized and lysed by adding 200 μL of Trizol (Takara, 9109 #). The fluid after the lysis in the well was collected by the RNA sterilization-grade pipette tip and transferred to the corresponding sterile EP tube. […] of chloroform was added, shaken vigorously for 30 sec, and centrifuged for 15 minutes in a centrifuge at 4° C. at 12000 rpm. The upper aqueous layer was transferred to a new EP tube, an equal volume of isopropanol was used to precipitate the RNA in the aqueous phase, and the tube was allowed to stand at −20° C. for more than 1 hr. And then the tube was centrifuged for 15 min at 4° C. at 12000 rpm, and the supernatant was discarded. 75% ethanol was added to wash the RNA pellet, and then the tube was centrifuged for 15 min at 4° C. at 12000 rpm, and the supernatant was discarded. The tube was placed at room temperature for 10-20 min to dry the RNA pellet. 25-200 μL of RNase-free water was added for dissolution and stored at −80° C.
PrimeScript™ RT Master Mix (Takara, RR036A) was selected for mRNA reverse transcription. Please refer to the instructions for the system. In short, 1 μg of mRNA was added to a 20 μL system, mixed and then kept at a constant temperature in a 37° C. water bath for 15 minutes, and then the enzyme was inactivated at 85° C. for 5 seconds. After centrifugation, double distilled water was used to dilute 10 times.
Q-PCR technology used 2×SYBR Green qPCR Master Mix (B21202, Biomake), and the reaction system could be prepared according to the instruction (10 μL of 2×SYBGreen, 8.8 μL of cDNA template, 1.2 μL of 5 μM primer Mix). The reaction conditions are: pre-denaturation at 95° C. for 5 min, denaturation at 95° C. for 30 sec, annealing at 60° C. for 30 sec, and extension at 72° C. for 30 sec, the number of reaction cycles is 40 cycles.
The experiment used qRT-PCR technology to determine the mRNA levels of fibrosis-related markers in lung tissue.
The experimental method was the same as that for the evaluation of the mRNA levels of inflammatory cytokines.

SMILES	reduction of expression (mRNA) of Collagen1-α1	reduction of expression (mRNA) of TGF-β1	reduction of expression (mRNA) of α-SMA
Cc1ccc([C@H](C)NC(=O)c2cccc(C(F)(F)F)c2)cc1-c1ccc2nc(Nc3cnn(C4CC4)c3)ncc2c1 [Compound S11-A]	about 50%	about 50%	about 50%
